Assays:
Tyrosinase = molecular target: T1, Tyrosinase (Agaricus bisporus, UniProt O42713); assay: Inhibition of mushroom tyrosinase
T1 sequence (O42713 whole entry): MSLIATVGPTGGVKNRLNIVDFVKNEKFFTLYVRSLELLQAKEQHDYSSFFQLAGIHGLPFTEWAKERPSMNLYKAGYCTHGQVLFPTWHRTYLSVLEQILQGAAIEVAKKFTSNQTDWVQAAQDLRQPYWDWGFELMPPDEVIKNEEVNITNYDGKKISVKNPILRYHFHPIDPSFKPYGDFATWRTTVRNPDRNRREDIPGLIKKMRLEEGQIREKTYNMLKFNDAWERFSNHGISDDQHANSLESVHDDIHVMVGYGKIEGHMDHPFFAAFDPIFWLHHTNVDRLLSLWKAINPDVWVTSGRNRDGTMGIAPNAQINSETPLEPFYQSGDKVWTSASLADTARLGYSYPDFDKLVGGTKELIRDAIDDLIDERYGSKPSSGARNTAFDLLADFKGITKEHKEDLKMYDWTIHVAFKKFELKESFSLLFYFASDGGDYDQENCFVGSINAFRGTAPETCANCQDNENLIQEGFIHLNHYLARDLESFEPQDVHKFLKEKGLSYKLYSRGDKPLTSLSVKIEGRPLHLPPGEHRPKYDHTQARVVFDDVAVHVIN

[1] = molecular target: T2, Tyrosinase (Agaricus bisporus) (UniProt O42713); assay: Inhibition of mushroom tyrosinase at 400 uM
T2 sequence (whole entry): T1 sequence (O42713 whole entry)

[2] = molecular target: T2, Tyrosinase (Agaricus bisporus); assay: Inhibition of mushroom tyrosinase at 100 uM
[3] = molecular target: T2, Tyrosinase (Agaricus bisporus); assay: Inhibition of mushroom tyrosinase at 200 uM

- IC50 (Tyrosinase): 208 µM
- inhibition [1]: 61.6%
- inhibition [2]: 28.6%
- inhibition [3]: 48.4%
SMILES: C[C@]1(CO)C=Cc2cc(O)ccc2O1 [DAEDALIN A]

Source: ChEMBL document CHEMBL1159048, “Asymmetric syntheses of daedalin A and quercinol and their tyrosinase inhibitory activity” (Bioorg Med Chem Lett, 2010)
